# Experimental data: patent US7112600B1, “Fused-ring compounds and use thereof as drugs” (Japan Tobacco Inc., priority 1999, dated 2006)
# Structures can show the parent of a compound that is named as a salt.
# Tests used:
# HCV polymerase = target: T1, HCV polymerase (Hepatitis C virus genotype 1b, UniProt P26663); test: biochemical; conditions: read-out: HCV polymerase inhibitory activity IC50
# T1 construct: a region encoding NS5B (591 amino acids; J Virol 1991 Mar, 65(3), 1105-13) was amplified by PCR; 6 His (N); made in house; host or cells: Escherichia coli
# Text: The evaluation of the HCV polymerase inhibitory activity of the compound of the present invention is explained in the following. This polymerase is an enzyme coded for by the non-structural protein region called NS5B on the RNA gene of HCV (EMBO J., 15:12-22, 1996).
# i) Preparation of enzyme (HCV polymerase)
# Using, as a template, a cDNA clone corresponding to the full length RNA gene of HCV BK strain obtained from the blood of a patient with hepatitis C, a region encoding NS5B (591 amino acids; J Virol 1991 Mar, 65(3), 1105-13) was amplified by PCR. The objective gene was prepared by adding a 6 His tag {base pair encoding 6 continuous histidine (His)} to the 5′ end thereof and transformed to Escherichia coli. The Escherichia coli capable of producing the objective protein was cultured. The obtained cells were suspended in a buffer solution containing a surfactant and crushed in a microfluidizer.
# ii) Synthesis of substrate RNA
# Using a synthetic primer designed based on the sequence of HCV genomic 3′ untranslated region, a DNA fragment (148 bp) containing polyU and 3′X sequence was entirely synthesized and cloned into plasmid pBluescript SK II(+) (Stratagene). The cDNA encoding full length NSSB, which was prepared in i) above, was digested with restriction enzyme KpnI to give a cDNA fragment containing the nucleotide sequence of from the restriction enzyme cleavage site to the termination codon. This cDNA fragment was inserted into the upstream of 3′ untranslated region of the DNA in pBluescript SK II(+) and ligated. The about 450 bp inserted DNA sequence was used as a template in the preparation of substrate RNA.
# RNA was synthesized (37° C., 3 hr) by run-off method using this purified DNA as a template, a promoter of pBluescript SK II(+), MEGAscript RNA synthesis kit (Ambion) and T7 RNA polymerase. DNaseI was added and the mixture was incubated for 1 hr. The template DNA was removed by decomposition to give a crude RNA product.
# This RNA was applied to formaldehyde denaturation agarose gel electrophoresis to confirm the quality thereof and preserved at −80° C.
# iii) Assay of enzyme (HCV polymerase) inhibitory activity
# A test substance (compound of the present invention) and a reaction mixture (30 μl) having the following composition were reacted at 25° C. for 90 min.
# 10% Trichloroacetic acid at 4° C. and 1% sodium pyrophosphate solution (150 μl) were added to this reaction mixture to stop the reaction. The reaction mixture was left standing in ice for 15 min to insolubilize RNA. This RNA was trapped on a glass filter (Whatman GF/C and the like) upon filtration by suction. This filter was washed with a solution containing 1% trichloroacetic acid and 0.1% sodium pyrophosphate, washed with 90% ethanol and is dried. A liquid scintillation cocktail (Packard) was added and the radioactivity of RNA synthesized by the enzyme reaction was measured on a liquid scintillation counter.
# The HCV polymerase inhibitory activity (IC50) of the compound of the present invention was calculated from the values of radioactivity of the enzyme reaction with and without the test substance.
# Reaction mixture : HCV polymerase (5 μg/ml) obtained in i), substrate RNA (10 μg/ml) obtained in ii), ATP (50 μM), GTP (50 μM), CTP (50 μM), UTP (2 μM), [5,6-^3H]UTP (46 Ci/mmol (Amersham), […]) 20 mM Tris-HCl (pH 7.5), EDTA (1 mM), MgCl2 (5 mM), NaCl (50 mM), DTT (1 mM), BSA (0.01%)
# HCV type 1a = test: inhibitory activity on HCV type 1a; conditions: statement in words, no method described
# HCV type 1b = test: inhibitory activity on HCV type 1b; conditions: statement in words, no method described
# [1] = blood concentration when administered to an animal; type: in vivo; conditions: when administered as a pharmaceutical agent to an animal; statement in words
# T1 sequence (P26663 2420-3010): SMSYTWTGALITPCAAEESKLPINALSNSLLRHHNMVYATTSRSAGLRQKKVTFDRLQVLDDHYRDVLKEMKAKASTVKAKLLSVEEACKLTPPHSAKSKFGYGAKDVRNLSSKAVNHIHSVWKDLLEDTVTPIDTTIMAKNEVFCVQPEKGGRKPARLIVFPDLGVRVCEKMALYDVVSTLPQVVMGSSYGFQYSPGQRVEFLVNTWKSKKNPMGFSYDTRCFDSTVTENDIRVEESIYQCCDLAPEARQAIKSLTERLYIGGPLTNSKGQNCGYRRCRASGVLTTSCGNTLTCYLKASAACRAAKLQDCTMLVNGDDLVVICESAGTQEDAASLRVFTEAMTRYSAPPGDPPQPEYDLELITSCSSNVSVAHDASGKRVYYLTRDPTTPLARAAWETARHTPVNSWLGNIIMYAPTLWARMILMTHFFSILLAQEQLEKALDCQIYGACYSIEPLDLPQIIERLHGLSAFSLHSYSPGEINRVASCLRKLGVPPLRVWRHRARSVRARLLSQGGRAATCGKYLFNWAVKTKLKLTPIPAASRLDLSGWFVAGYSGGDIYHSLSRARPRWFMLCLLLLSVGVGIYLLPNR
Structure (SMILES),IC50 (HCV polymerase) [nM],other results
Cl.O=C(O)c1ccc2c(c1)nc(-c1ccc(OCc3cc(N4CCCC4=O)ccc3-c3ccc(Cl)cc3)cc1F)n2C1CCCCC1 [2-{4-[2-(4-chlorophenyl)-5-(2-oxopyrrolidin-1-yl)benzyloxy]-2-fluorophenyl}-1-cyclohexylbenzimidazole-5-carboxylic acid hydrochloride],–,inhibitory activity on HCV type 1a (HCV type 1a): high inhibitory activity; inhibitory activity on HCV type 1b (HCV type 1b): high inhibitory activity; blood concentration [1]: high blood concentration
"O=C(O)c1ccc2c(c1)nc(-c1ccc(Oc3cccc(Oc4ccccc4)c3)cc1)n2C1CCCCC1 [Example 129, 1-cyclohexyl-2-[4-(3-phenoxyphenoxy)phenyl]benzimidazole-5-carboxylic acid]",120,–
"COc1cc(CCOc2ccc(-c3nc4cc(C(=O)O)ccc4n3C3CCCCC3)cc2)cc(OC)c1OC [Example 101, 1-cyclohexyl-2-{4-[2-(3,4,5-trimethoxyphenyl)ethoxy]phenyl}-benzimidazole-5-carboxylic acid]",140,–
"O=C(O)c1ccc2c(c1)nc(-c1ccc(OCCN3c4ccccc4CCc4ccccc43)cc1)n2C1CCCCC1 [Example 116, 1-cyclohexyl-2-{4-[2-(10,11-dihydro-5H-dibenzo[b,f]azepin-5-yl)ethoxy]phenyl}benzimidazole-5-carboxylic acid]",370,–

# Second part, led by results:
IC50 (HCV polymerase) [nM],Structure (SMILES),other results
45,"O=C(O)c1ccc2c(c1)nc(-c1ccc(OC(c3cccnc3)c3cccnc3)cc1F)n2C1CCCCC1 [Example 300, 2-{4-[bis(3-pyridyl)methoxy]-2-fluorophenyl}-1-cyclohexylbenzimidazole-5-carboxylic acid]",–
52,"COC(=O)c1ccc2c(c1)nc(-c1ccc(OCc3cc(C(=O)O)ccc3-c3ccc(Cl)cc3)cc1F)n2C1CCCCC1 [Example 281, methyl 2-{4-[5-carboxy-2-(4-chlorophenyl)benzyloxy]-2-fluorophenyl}-1-cyclohexylbenzimidazole-5-carboxylate hydrochloride]",–
11,"CN(C)C(=O)c1ccc(-c2ccc(Cl)cc2)c(COc2ccc(-c3nc4cc(-c5nnn[nH]5)ccc4n3C3CCCCC3)c(F)c2)c1 [Example 434, 2-{4-[2-(4-chlorophenyl)-5-(dimethylcarbamoyl)benzyloxy]-2-fluorophenyl}-1-cyclohexyl-5-tetrazol-5-ylbenzimidazole]",–
55,"O=C(O)c1ccc2c(c1)nc(-c1ccc(Oc3cc(-c4cccc(Cl)c4)ncn3)cc1)n2C1CCCCC1 [Example 240, 2-{4-[4-(3-chlorophenyl)-6-pyrimidinyloxy]phenyl}-1-cyclohexylbenzimidazole-5-carboxylic acid]",–
